Patent US10837044B2, “Automated method for analyzing and interpreting an antimicrobial susceptibility” (FONDATION MEDITERRANEE INFECTION, priority 2014, dated 2020)

How the values were obtained:
Assay in all cases: antibiogram by diffusion on Mueller-Hinton agar with antibiotic wafers
Format in all cases: cell-based
Enterobacter aerogenes = details: Table C1, six wafers, disk loads of Table B
Description: (§1) The inoculum was prepared by making a suspension of bacteria directly from colonies put into solution in tubes of sterile water so that the solution presented accurate opacity as determined with a spectrophotometer equivalent to the opacity of a 0.5 standard in the McFarland range. This bacterial suspension concentration is standardized since a more concentrated inoculum would lead to smaller diameters for the inhibition zone, and vice versa.
(§2) The inoculum corresponds to concentrations of about 10^8 CFU/mL for Escherichia coli, Klebsiella pneumoniae, Proteus mirabilis, Klebsiella oxytoca, Enterobacter cloacea, Enterobacter aerogenes, Entercoccus faecalis, Pseudomonas aeruginosa, Staphylococcus aureus, and Staphylococcus epidermidis. These are the ten species bacteria that are encountered the most frequently in human pathologies.
(§3) 1.2) The bacterial sample was deposited on a solid culture medium in a petri dish having a diameter of 90 mm or in a square dish having a side of 120 mm, the medium being constituted by a Mueller-Hinton agar specific for (EUCAST) antibiograms. Ideally, it should be used in the 15 minutes (min) following preparation of the suspension.
(§4) Seeding was done by the method of diffusion on an agar medium by flooding in which excess bacterial suspension was added to the Mueller-Hinton agar. After homogenizing, excess liquid was discarded in order to avoid over-inoculating the dishes. It is necessary to wait beforehand for the surface of the agar to be dry in order to eliminate any trace of moisture encouraging bacterial invasion.
(§5) The disks of the antibiotic wafers were deposited within 15 min after inoculating the agar. The antibiotic impregnated disks were deposited using an automatic dispenser that placed the disks firmly on the surface of the inoculated and dried agar. The number of disks deposited per dish was limited because of inhibition zone overlap and in order to limit interference between antibiotics. It is important for the inhibition diameters to be measurable. The antibiograms were then incubated at 37° C. for 18 hours (h) to 24 h.
(§6) The antibiotic wafers were made of high quality absorbent paper with a diameter of 6 mm and they were impregnated with antibiotics at concentrations in the range 1 micrograms (μg) to 300 μg approximately, depending on the antibiotic.
(§7) In the examples below, reference disks were used as sold by the suppliers i2a (Montpellier, France), BD (Becton Dickinson, USA), Bio-Rad (Hercules, USA), Biomerieux (Marcy l′Etoile, France) containing the following antibiotics and carrying the following codes and the following doses: AMX (amoxicillin) 25 μg: AMC (amoxicillin-clavulanic acid) 20 μg-10 μg; GM for gentamicin, 15 μg; SXT (trimethoprim-sulfamethoxazole) 1.25/23.75 μg; TIC (ticarcillin) 75 μg; TCC (ticarcillin-clavulanic acid) […]; TZP (piperacillin-tazobactam) 75/10 μg; CAZ (ceftazidime) 30 μg; IMP or IPM (imipeneme) 10 μg; COL (colistin) 50 μg; FOX (cefoxitine) 30 μg; VAN (vancomycin) 30 μg; TEC (teicoplanin) 30 μg; CLI or DA (clindamycin) 2 μg; CRO (ceftriaxone) 30 μg; CIP (ciprofloxacin) 5 μg; OFX (ofloxacin) 5 μg; CTX (cefotaxime) 5 μg; AN or AK (amikacin) 30 μg; TM (tobramycin) 10 μg; FOX (cefoxitine) 30 μg; ATM (aztreonam) 30 μg; ERT (ertapenem) 10 μg; FF (fosfomycin) 200 μg; DO (doxycycline) 30 μg; K (kanamycin) 1000 μg; L (lincomycin) 15 μs; LNZ (linezolid) 10 μg; AN (nalidixic acid) 30 μg; NOR (norfloxacin) 10 μg; PT (pristinamycin) 15 μg; RA (rifampicin) 5 μg; and E (erythromycin) 15 μg.

Enterobacter cloacea = details: Table C1, six wafers, disk loads of Table B
Description: as §1, §2, §3, §4, §5, §6, §7

Escherichia coli = details: for resistance (I, R) or sensitivity (S): Table C1, disk loads of Table B; for resistant (I/R) or sensitive (S): Table C2, square dish
Description: as §1, §2, §3, §4, §5, §6, §7

Klebsiella oxytoca = details: Table C1; K. oxytoca phenotype Wild; six wafers, disk loads of Table B
Description: as §1, §2, §3, §4, §5, §6, §7

Klebsiella pneumoniae = details: for resistance (I, R) or sensitivity (S): Table C1, six wafers, disk loads of Table B; for resistant (I/R) or sensitive (S): Table C2, sixteen wafers, square dish
Description: as §1, §2, §3, §4, §5, §6, §7

Proteus mirabilis = details: Table C1, six wafers, disk loads of Table B
Description: as §1, §2, §3, §4, §5, §6, §7

Pseudomonas aeruginosa = details: Table C1, six wafers, disk loads of Table B
Description: as §1, §2, §3, §4, §5, §6, §7

[1] = E. coli phenotype BSBL, six wafers
[2] = E. coli phenotype Carbapenemase, six wafers
[3] = E. coli phenotype Hl cephalosporinase, six wafers
[4] = E. coli phenotype Hl penicillinase, six wafers
[5] = E. coli phenotype Inhibitor resistant penicillinase, six wafers
[6] = E. coli phenotype Ll penicillinase, six wafers
[7] = E. coli phenotype Wild, six wafers in a circle
[8] = K. pneumoniae phenotype Carbapenemase
[9] = K. pneumoniae phenotype Hl cephalosporinase
[10] = K. pneumoniae phenotype Hl penicillinase
[11] = K. pneumoniae phenotype Ll penicillinase
[12] = P. mirabilis phenotype Hl cephalosporinase
[13] = P. mirabilis phenotype Hl penicillinase
[14] = P. mirabilis phenotype Inhibitor resistant penicillinase
[15] = P. mirabilis phenotype Ll penicillinase
[16] = P. aeruginosa Abnormal phenotype
[17] = P. aeruginosa phenotype Carbapenemase
[18] = P. aeruginosa phenotype Penicillinase
[19] = P. aeruginosa phenotype Selective imipenem permeability
[20] = E. coli phenotype Cephalosporinase + R to fluoroquinolones + R to cotrimoxazole + partial R to aminosides, sixteen wafers
[21] = E. coli phenotype Hl penicillinase + R to fluoroquinolones + R to cotrimoxazole + partial R to aminosides, sixteen wafers
[22] = E. coli phenotype Wild, sixteen wafers in a rectangular grid
[23] = K. pneumoniae phenotype Cephalosporinase + R to aminosides + R to cotrimoxazole

Molecule | resistance (I, R) or sensitivity (S) (Enterobacter aerogenes; E. aerogenes phenotype BSBL) | resistance (I, R) or sensitivity (S) (Enterobacter aerogenes; E. aerogenes phenotype Wild) | resistance (I, R) or sensitivity (S) (Enterobacter cloacea; E. cloacae phenotype BSBL) | resistance (I, R) or sensitivity (S) (Enterobacter cloacea; E. cloacae phenotype Wild) | resistance (I, R) or sensitivity (S) (Escherichia coli; [1]) | resistance (I, R) or sensitivity (S) (Escherichia coli; [2]) | resistance (I, R) or sensitivity (S) (Escherichia coli; [3]) | resistance (I, R) or sensitivity (S) (Klebsiella oxytoca) | resistance (I, R) or sensitivity (S) (Klebsiella pneumoniae; K. pneumoniae phenotype BSBL) | resistance (I, R) or sensitivity (S) (Klebsiella pneumoniae; [8]) | resistance (I, R) or sensitivity (S) (Klebsiella pneumoniae; [9]) | resistance (I, R) or sensitivity (S) (Klebsiella pneumoniae; [10]) | resistance (I, R) or sensitivity (S) (Klebsiella pneumoniae; [11]) | resistance (I, R) or sensitivity (S) (Klebsiella pneumoniae; K. pneumoniae phenotype Wild) | resistance (I, R) or sensitivity (S) (Pseudomonas aeruginosa; [16]) | resistance (I, R) or sensitivity (S) (Pseudomonas aeruginosa; P. aeruginosa phenotype BSBL) | resistance (I, R) or sensitivity (S) (Pseudomonas aeruginosa; [17]) | resistance (I, R) or sensitivity (S) (Pseudomonas aeruginosa; [18]) | resistance (I, R) or sensitivity (S) (Pseudomonas aeruginosa; [19]) | resistance (I, R) or sensitivity (S) (Pseudomonas aeruginosa; P. aeruginosa phenotype Wild) | other results
CO/N=C(\C(=O)N[C@@H]1C(=O)N2C(C(=O)[O-])=C(C[N+]3(C)CCCC3)CS[C@H]12)c1csc(N)n1 [FEP, cefepime] | R/I | S | R | S | R | R | R | S | R | R | S | S | S | S | R | I/R | R | S | S | S | resistance (I, R) or sensitivity (S) (Escherichia coli; [4]): S; resistance (I, R) or sensitivity (S) (Escherichia coli; [5]): S; resistance (I, R) or sensitivity (S) (Escherichia coli; [6]): S; resistance (I, R) or sensitivity (S) (Escherichia coli; [7]): S; resistance (I, R) or sensitivity (S) (Proteus mirabilis; [12]): R; resistance (I, R) or sensitivity (S) (Proteus mirabilis; [13]): S; resistance (I, R) or sensitivity (S) (Proteus mirabilis; [14]): S; resistance (I, R) or sensitivity (S) (Proteus mirabilis; [15]): S; resistance (I, R) or sensitivity (S) (Proteus mirabilis; P. mirabilis phenotype Wild): S
C[C@@H](O)[C@H]1C(=O)N2C(C(=O)O)=C(SCCN=CN)C[C@H]12 [IMP, imipenem] | S | S | S | S | S | R | S | S | S | R | S | S | S | S | S | S | R | S | I | S | resistance (I, R) or sensitivity (S) (Escherichia coli; [4]): S; resistance (I, R) or sensitivity (S) (Escherichia coli; [5]): S; resistance (I, R) or sensitivity (S) (Escherichia coli; [6]): S; resistance (I, R) or sensitivity (S) (Escherichia coli; [7]): S; resistant (I/R) or sensitive (S) (Escherichia coli; [20]): S; resistant (I/R) or sensitive (S) (Escherichia coli; [21]): S; resistant (I/R) or sensitive (S) (Escherichia coli; [22]): S; resistant (I/R) or sensitive (S) (Klebsiella pneumoniae; [23]): S; resistant (I/R) or sensitive (S) (Klebsiella pneumoniae; K. pneumoniae phenotype Wild): S; resistance (I, R) or sensitivity (S) (Proteus mirabilis; [12]): S; resistance (I, R) or sensitivity (S) (Proteus mirabilis; [13]): S; resistance (I, R) or sensitivity (S) (Proteus mirabilis; [14]): S; resistance (I, R) or sensitivity (S) (Proteus mirabilis; [15]): S; resistance (I, R) or sensitivity (S) (Proteus mirabilis; P. mirabilis phenotype Wild): S
colistin | S | S | S | S | – | – | – | S | S | S | S | S | S | S | – | – | – | – | – | – | resistant (I/R) or sensitive (S) (Escherichia coli; [20]): S; resistant (I/R) or sensitive (S) (Escherichia coli; [21]): S; resistant (I/R) or sensitive (S) (Escherichia coli; [22]): S; resistant (I/R) or sensitive (S) (Klebsiella pneumoniae; [23]): S; resistant (I/R) or sensitive (S) (Klebsiella pneumoniae; K. pneumoniae phenotype Wild): S
piperacillin-tazobactam [TZP] | R | S | R | S | – | – | – | S | R/I | R | I/R | S/I/R | R | S | R/S | I/R | R | I/S | S | S | –
